We go through six compounds from US10392363B2, “Methods for treating protozoan infections” (Neoculi Pty Ltd., priority 2014, dated 2019).

Series [1] relates to Leishmania donovani promastigotes. In words: L. donovani screening (Alamarblue). It counts as cell-based. To be noted: for IC50: 72 hours; for L. donovani SI: GI50 of macrophages divided by IC50 of parasites. The method, then:
L. donovani Screening. Procyclic promastigotes from exponentially growing cultures maintained in DME-L+ Bob additions were used for all assays. Compounds were initially screened for activity at 10 μM. Compounds were diluted in culture media to a […] in 96 well plates. Promastigotes were diluted to a density of ˜8×10^5 cells/ml then added to the assay plate resulting in a final cell density of 4×10^5 cells/ml. in 96 well plates. Cells were incubated for 96 hrs at 27° C. before the addition of Alamarblue (thermofisher). Fluorescence was read at excitation 530 nm and Emission 590 nm. […] Compounds were serially diluted in thirds, in a 96 well plate, in cell growth media so that concentrations ranged from 0.005 to 10 μM and promastigotes added to a final concentration of 1×10^6 cells/ml. Cells were incubated at 27° C. for 72 hours before the addition of alamar blue. Fluorescence was measured as above.

Series [2] has as its system T. brucei procyclic stage. In words: T. brucei screening (alamar blue). To be noted: for T. brucei SI: GI50 of macrophages divided by IC50 of parasites. It counts as cell-based, Trypanosoma brucei. How it is done:
T. brucei screening. Procyclic promastigotes from exponentially growing cells maintained SDM-79 medium were used in all assays. Compounds were initially screened at 10 μM for activity. Compounds were diluted in culture media to a concentration of 20 μM and added to a 96 well plate, after addition of promastigotes (final concentration 4×10^5 cells/ml) compound concentration was 10 μM. Cells were incubated for 48 hrs at 27° C. before the addition of alamar blue and fluorescence measurement as described above. […] Compounds were serially diluted in thirds in culture media resulting in final concentrations ranging from 0.004-10 μM. Promastigotes were added at a final concentration of 4×10^5 cells/ml. Cells were incubated at 27° C. for 48 hours before addition of alamar blue. In addition promastigotes, at a concentration of 8×10^5 were exposed to NCL026 for 1.5 hours before removal of the drug via centrifugation at 5000 rpm for 7 minutes and resuspension of cells in culture media. Cells were incubated for 96 hours at 27° C. and observed daily for metabolic activity (alamar blue assay) and morphological changes. A control culture was exposed to DMSO instead of NCL026.

The test system of series [3] is Mouse macrophages (RAW 264.7). In words: Cell toxicity assay (WST-1). The class given is cell-based. Conditions: RAW 264.7, 24 hours, read-out: GI50 macrophage. How it is done:
(§1) Cell toxicity assays. Mouse macrophages (RAW 264.7) were grown in RPM11640 media supplemented with L-glutamine and 10% foetal calf serum. Cells were trypsanised when 80% confluent and subcultured every 3-4 days. For cytotoxicity assays cells were diluted to a final cell concentration of 2×10^4 cells/ml and 198 μl added to each well of a 96 well plate. Cells were incubated in a humidified incubator for 2 hours at 37° C. 5% CO2 before the addition of NCL compounds (2 μl/well, previously diluted in DMSO). Campothecin, triton X and DMSO only were used as controls. Cells were exposed to the compounds for 24 hours. The metabolic activity of the cells was determined using the WST-1 assay system (Roche Life Science). The supernatant was removed, 100 μl of PBS with 10% WST-1 was added to each well and incubated for 1 hr before reading absorbance at 450 nm. The selectivity index of the compounds was determined by dividing the IC50 of macrophages by the IC50 against parasites. IC50 was determined via graphpad prism software.

Series [4] in a line: Exposure in male Swiss outbred mice following IV administration. It counts as in vivo. To be noted: IV 5 mg/kg; for Apparent t1/2: plasma, value marked b is an approximation; for AUC0-inf / Plasma CL / Plasma Vss: values marked a, b are approximations. How it is done: The systemic exposures of NCL026, NCL195, NCL259 and NCL812 were studied in nonfasted male Swiss outbred mice weighing 26.2-32.1 g. Mice had access to food and water ad libitum throughout the pre- and post-dose sampling period. Each compound was administered IV via a bolus injection into the tail vein (vehicle 20% (v/v) DMSO in PEG400, 1 mL/kg dose volume, n=8 mice per compound). […] A maximum of two samples were obtained from each mouse, with samples being taken either via submandibular bleed (approximately 120 μL; conscious sampling) or terminal cardiac puncture (0.6 mL; while mice were anaesthetised using inhaled Isoflurane). No urine samples were collected as mice were housed in bedded cages during the study. Blood was collected directly into polypropylene Eppendorf tubes containing heparin as anticoagulant, and stabilisation cocktail (containing Complete® (a protease inhibitor cocktail with EDTA) and potassium fluoride) to minimise the potential for ex vivo degradation of the test compounds in blood/plasma samples. Once collected, blood samples were centrifuged immediately, supernatant plasma was removed, and stored at −80° C. until analysis by LC-MS using methods standard in the art. Each compound was administered in a vehicle composed of 20% (v/v) DMSO in PEG400. Formulations were prepared by dissolving the compounds in DMSO prior to addition of PEG400. Formulations were not filtered prior to dosing and were administered to mice within 2.5 h of preparation. […] The dose administered to each mouse was calculated on the basis of the measured concentration in the IV formulation, the dose volume and individual mouse body weight. Plasma concentration versus time data were analysed using non-compartmental methods (WinNonlin Version 6.3.0.395). Standard calculations for each pharmacokinetic parameter were calculated using standard methods in the art.

The subject of series [5] is Trypanosoma cruzi (Tulahuen trypomastigotes expressing β-galactosidase, in L6 cells). Kind of series: In vitro T. cruzi assay for determination of IC50. The class given is cell-based. Conditions: 96 h incubation. How it is done:
The T. cruzi assay uses Tulahuen trypomastigotes expressing the β-galactosidase gene. The parasites were maintained in vitro by serial passage in L6 cells. […] Extracellular trypomastigotes were then removed and NCL compounds were added in seven-point serial dilutions performed in triplicate. Benznidazole (Epichem Pty Ltd.) was included as a control. […] After 4-6 h, a colour change following catabolisation of the reagent by viable T. cruzi was observed and absorbance was read at 530 nm using a Dynex microplate reader. […] For each compound, % inhibition values were used to generate a standard curve from which the IC50 was calculated. Each assay was performed at least twice, and the average was used.

Series [6] can be described thus: Cell toxicity assay (WST-1). Conditions: mouse, RAW 264.7 macrophages, RAW 264.7, 24 hours, read-out: GI50 macrophage. It counts as cell-based, mouse. How it is done:
as §1

A short description of series [7]: Exposure of NCL195 in male Swiss outbred mice following IP administration. The class given is in vivo. The method, then: The formulation was prepared by dissolving solid NCL195 in DMSO (to 20% (v/v) of the final volume) before adding PEG400, yielding a clear yellow solution that was dosed to mice within 30 minutes of preparation. The measured concentration of NCL195 in the final formulation was 21.9 mg/mL, resulting in a mean administered dose of 43 mg/kg. Following administration, blood samples were collected up to 24 h post-dose (n=2 mice per time point). A maximum of two samples were obtained from each mouse, with samples being taken either via submandibular bleed (approximately 120 μL; conscious sampling) or terminal cardiac puncture (0.6 mL; while mice were anaesthetised using inhaled Isoflurane). No urine samples were collected as mice were housed in bedded cages during the study. Blood was collected directly into polypropylene Eppendorf tubes containing heparin as anticoagulant and stabilisation cocktail (containing Complete® (a protease inhibitor cocktail), potassium fluoride and EDTA) to minimise the potential for ex vivo degradation of NCL195 in blood/plasma samples. Once collected, blood samples were centrifuged immediately, supernatant plasma was removed, and stored in −20° C. until analysis by LCMS using standard methods in the art.

For series [8], the system named is Giardia duodenalis (strain WB trophozoites). In words: Giardia adherence assay. The class given is cell-based. Conditions: exposed for 5 hours. The method, then:
Giardia strain WB was grown until confluent (grown and maintained in TYI-S-33 medium with 10% foetal bovine serum). For the assay, media of a confluent culture was replaced with fresh TYI-S-33 medium. Cultures were then cold shocked (on ice) for 40 minutes to detach trophozoites. The cell density of the cultures was adjusted to 1×10^6 cells/ml and 1 ml was added to each well of a 24 well plate already containing 1 ml of diluted compounds (see below). […] After incubation the coverslips were removed, air-dried and stained with Diff-Quik (a Romanowski stain variant). Coverslips were mounted onto glass slides using polymount. Images at 10× magnification were taken at 5 random locations per coverslip. […] Stock solutions of compounds were prepared in DMSO at 25.6 mg/ml. Compounds were diluted 1:100 in TYI-S-33 medium. A 1:2 serial dilution was then performed in TYI-S-33 medium in 24 well plates.

The test system of series [9] is Giardia duodenalis trophozoites. Kind of series: Resazurin reduction assay (Example 3). It counts as cell-based. To be noted: 42 hours, then 6 hours with Alamarblue. The method, then: Giardia trophozoites were grown until confluent. The media was replaced with fresh media and they were cold shocked for 40 minutes (as above). Cells were diluted to a concentration of ˜500 000 cells/ml and 100 μl were added to each well of the assay plate (except media only control). The assay was incubated in an anaerobic environment (candle jar) for 42 hours at 37° C. […] After incubation the absorbance of each sample was read at 570 and 630 nm. The percent reduction of resazurin (Alamarblue™) was calculated and data was analysed with GraphPad Prism v6 software. Assay set-up: the assay was performed in 96 well plates in a total volume of 200 μl. 100 μl of NCL812 or NCL062 (concentration of 25.6 mg/ml in DMSO) or metronidazole (concentration 5 mg/ml in DMSO) stock was added to 9.9 ml of TYI-S-33 medium, then serially diluted 1:2 in the same medium. Cells were added as above.

In a further series the test system is giardia. To be noted: cited from earlier work.

Consider `N#Cc1cccc(C=NNC(=N)NN=Cc2cccc(C#N)c2)c1` [NCL026], for which, in [1], the IC50 was 2.5 ± 0.13 µM and the “L. donovani SI” value is listed as 3.84. Further, the “reduction of metabolic activity / inhibitory effect on T. brucei” value in series [2] (10 μM, 48 hrs) is on record as “greatest inhibitory effect”. Also, in series [2] (48 hours), the IC50 worked out at 1.7 µM. This compound also gave an IC50 in [2] (48 hours, listed as NCL 026) of 1.68 ± 0.63 µM. The “T. brucei SI” value in series [2] worked out at 5.71. Besides, the GI50 in [3] turned out to be 9.6 ± 0.99 µM. In series [4], the “Apparent t1/2” value was 1.5 h, the AUC0-inf came to 2.5 µM·h, the “Plasma CL” value stood at 100.6 mL/min/kg and the “Plasma Vss” value is 6.9 L/kg. This compound registered an IC50 in series [5] of 1.4 µM.
For `Cl.N=C(NN=Cc1ccc(SC(F)(F)F)cc1)NN=Cc1ccc(SC(F)(F)F)cc1` [NCL166], in series [1], the IC50 turned out to be 3.23 ± 1 µM and the “L. donovani SI” value was determined as 2.78. Further, the GI50 in series [3] was 9.46 ± 0.05 µM.
For `CN(C)c1ccc(C=NNC(=N)NN=Cc2ccc(N(C)C)cc2O)c(O)c1` [NCL171], the IC50 in [2] (48 hours) was determined as 1.4 µM; in series [2] (48 hours, listed as NCL 171), 1.37 ± 0.03 µM. The “T. brucei SI” value is “relatively selective” in series [2] and 9.14 in series [2] (listed as NCL 171). The GI50 in [3] came to 12.5 ± 3.61 µM.
As to `Cc1ccc(/C=N/Nc2cc(N/N=C/c3ccc(C)cc3)nc(N)n2)cc1` [NCL195, 4,6-bis(2-((E)-4-methylbenzylidene)hydrazinyl)pyrimidin-2-amine], in series [1] (Leishmania donovani, 10 μM, 96 hrs, read-out: reduction of metabolic activity / inhibition of L. donovani), the inhibition at 10 µM was found to be 100%. The same compound yielded an IC50 in series [2] (48 hours) of 1.46 ± 0.76 µM. For the same compound, in series [2], the “T. brucei SI” value is reported as 3.79. The IC50 in series [2] (Trypanosoma brucei, 48 h) is 1.5 µM. Besides, the GI50 at 24 h in series [6] came to 5.78 ± 0.33 µM. In series [4], the “Apparent t1/2” value was 2.4 h, the AUC0-inf amounted to 12.5 µM·h, the “Plasma CL” value came out at 16.3 mL/min/kg and the “Plasma Vss” value is listed as 2.6 L/kg. Moreover, in series [7] (IP, 43 mg/kg), the absorption after dosing entry is “rapidly absorbed” and the “adverse reactions or compound-related side effects” value is reported as “No adverse reactions or compound-related side effects”. The “duration of exposure at a plasma concentration >8 μg/mL” value in [7] (extrapolated to IP 100 mg/kg, assuming dose proportionality) is on record as “at least 7.5 hours”.
In the case of `Cc1ncc([N+](=O)[O-])n1CCO` [metronidazole, reference compound], the “number of adherent trophozoites” value in series [8] is reported as “significant decreases”. Moreover, in series [9], the “metabolic activity of the trophozoites (percentage of reduction of resazurin)” value was “reduction in the metabolic activity”. Also, the median efficacy entry in the series on giardia (giardia treatment) is on record as “approximately 89%”. Besides, the “giardia curative rate (clearance of the protozoan)” value in the series on giardia (human adult and paediatric patients, 5-10 days, reported as low as) is listed as not below 60%.
In the case of `CC(=O)Oc1ccccc1C(=O)Nc1ncc([N+](=O)[O-])s1` [nitazoxanide], in the series with giardia (giardia), the “overall response rate (clearance of the protozoan)” value is listed as 75%.
